In brackets after ≈: the same amount, converted by molar mass. Read-outs that look alike come from different tables or passages of the source.
Tests used:
[1] = test system: Staphylococcus aureus NCTC 13373 (mecA-positive; methicillin-resistant); experiment: In vitro antibacterial activity, MIC (UCL School of Pharmacy assay), MRSA; assay type: cell-based; conditions: for MIC: Staphylococcus aureus, read-out: MRSA MIC
Method: (§1) Staphylococcus aureus NCTC 13373 (mecA-positive; methicillin-resistant, NCTC 13373) was supplied by the National Collection of Type Cultures (NCTC), Public Health England, United Kingdom. Other organisms, S. aureus ATCC 25923 (methicillin-susceptible) and Enterococcus faecalis ATCC 51299 (vanA-positive; vancomycin-resistant), were obtained from the American Type Culture Collection (ATCC) via LGC Standards, UK. A suspension of each organism was prepared from an overnight plate culture (tryptone soya agar) in phosphate-buffered saline (PBS) and adjusted to an absorbance reading at 600 nm of 0.1, which is approximately equivalent to 1 × 10^8 colony-forming units (CFU) per mL. The cultures were further diluted 1:100 in isosensitest broth (Oxoid, United Kingdom) before 100 μL was used to inoculate each well of a 96-well plate that contained diluted samples of the OSA series. Compounds were evaluated over a 2-fold dilution range from 32 to 0.03 μg/mL. Stocks of the samples were prepared in 100% DMSO at […] before being diluted in isosenstitest broth. The highest concentration of DMSO present was 2%, which has been previously shown not to inhibit the growth of the microorganisms (data not shown). […] Vancomycin was used as a quality control compound.

[2] = test system: S. aureus ATCC 25923 (methicillin-susceptible); experiment: In vitro antibacterial activity, MIC (UCL), MSSA; assay type: cell-based, Staphylococcus aureus; conditions: for MIC: Staphylococcus aureus, read-out: MSSA MIC
Method: as §1

MIC [1] [µg/mL]	MIC [2] [µg/mL]	SMILES	also measured
16 (≈ 54.9 µM)	–	COc1ccc(-c2c(-c3ccccn3)nc3n2CCC3)cc1 [compound 823]	–
4 (≈ 13 µM)	–	CSc1ccc(-c2c(-c3ccccn3)nc3n2CCC3)cc1 [compound 824]	–
16 (≈ 54.9 µM)	–	COc1cccc(-c2c(-c3ccccn3)nc3n2CCC3)c1 [compound 825]	–
4 (≈ 13 µM)	–	CSc1cccc(-c2c(-c3ccccn3)nc3n2CCC3)c1 [compound 826]	–
32 (≈ 105 µM)	–	c1ccc(-c2nc3n(c2-c2ccc4c(c2)CCO4)CCC3)nc1 [compound 827]	activity against MRSA, in words [1]: ineffective
32 (≈ 105 µM)	–	c1ccc(-c2nc3n(c2-c2ccc4c(c2)OCC4)CCC3)nc1 [compound 828]	activity against MRSA, in words [1]: ineffective
4 (≈ 13.3 µM)	–	c1ccc(-c2nc3n(c2-c2ccc4ccoc4c2)CCC3)nc1 [compound 829]	–
4 (≈ 12.6 µM)	–	c1ccc(-c2nc3n(c2-c2ccc4ccsc4c2)CCC3)nc1 [compound 830]	–
8 (≈ 21.8 µM)	–	c1ccc(-c2nc3n(c2-c2ccc4sc5ccccc5c4c2)CCC3)nc1 [compound 831]	–
8 (≈ 25.2 µM)	–	c1ccc(-c2nc3n(c2-c2csc4ccccc24)CCC3)nc1 [compound 832]	–
> 32	–	c1ccc(-c2nc3n(c2-c2ccc4cccnc4c2)CCC3)nc1 [compound 833]	activity against MRSA, in words [1]: ineffective
–	–	c1ccc(-c2nc3n(c2-c2ccc4sccc4c2)CCC3)cc1 [compound 834]	MRSA MIC [1]: > 32 µg/mL
32 (≈ 101 µM)	–	c1ccc(-c2nc3n(c2-c2ccc4scnc4c2)CCC3)nc1 [compound 835]	activity against MRSA, in words [1]: ineffective
32 (≈ 96.3 µM)	–	Cc1nc2cc(-c3c(-c4ccccn4)nc4n3CCC4)ccc2s1 [compound 836]	activity against MRSA, in words [1]: ineffective
–	–	COc1cccn2c(N(C)c3ccc(F)cc3)c(-c3ccccn3)nc12 [compound 1001]	MIC ([1]; 16 h): 16 µg/mL (≈ 45.9 µM); MIC ([2]; 16 h): 16 µg/mL (≈ 45.9 µM)
16 (≈ 49.8 µM)	16 (≈ 49.8 µM)	[2H]C([2H])([2H])N(c1ccc(F)cc1)c1c(-c2ccccn2)nc2ccccn12 [compound 1002]	–
16 (≈ 40.3 µM)	16 (≈ 40.3 µM)	CN(c1ccc(F)cc1)c1c(-c2ccccn2)nc2ccc(Br)cn12 [compound 1003]	–
8 (≈ 22 µM)	8 (≈ 22 µM)	CSc1ccc2nc(-c3ccccn3)c(N(C)c3ccc(F)cc3)n2c1 [compound 1004]	–

MIC [1] [µg/mL]	MIC [2] [µg/mL]	SMILES	also measured
32 (≈ 95.1 µM)	32 (≈ 95.1 µM)	CN(c1ccc(F)cc1)c1c(-c2ccccn2)nc2cccc(F)n12 [compound 1005]	–
–	–	CN(c1ccc(F)cc1)c1c(-c2ccccn2)nc2c(F)cccn12 [compound 1006]	MIC ([1]; 16 h): > 32 µg/mL; MIC ([2]; 16 h): > 32 µg/mL
–	–	COc1ccnc(-c2nc3ccccn3c2N(C)c2ccc(F)cc2)c1 [compound 1007]	MRSA MIC [1]: 8 µg/mL; MSSA MIC [2]: 8 µg/mL
> 32	> 32	Fc1ccc(Nc2c(-c3nccs3)nc3ccccn23)cc1 [compound 1008]	–
> 32	> 32	Fc1ccc(Nc2c(-c3ccc[nH]3)nc3ccccn23)cc1 [compound 1009]	–
–	–	CC(C)CN(c1ccc(F)cc1)c1c(-c2nccs2)nc2ccccn12 [compound 1010]	MRSA MIC [1]: > 32 µg/mL; MSSA MIC [2]: > 32 µg/mL
4 (≈ 11.7 µM)	4 (≈ 11.7 µM)	CCN(CC)c1ccc(-c2c(-c3ccccn3)nc3ccccn23)cc1 [compound 1011]	–
> 32	> 32	CN1CCN(c2ccc(-c3c(-c4ccccn4)nc4ccccn34)cc2)CC1 [compound 1012]	–
–	–	Cc1ccc(-c2c(-c3ccccn3)nc3cc(C#N)ccn23)cc1 [compound 1013]	MRSA MIC [1]: > 32 µg/mL; MSSA MIC [2]: > 32 µg/mL
–	–	Cc1ccc(-c2c(-c3ccccn3)nc3cc(N4CCNCC4)ccn23)cc1 [compound 1014]	MRSA MIC [1]: > 32 µg/mL; MSSA MIC [2]: > 32 µg/mL
–	–	Cc1ccc(-c2c(-c3ccccn3)nc3cc(C(N)=O)ccn23)cc1 [compound 1015]	MRSA MIC [1]: > 32 µg/mL; MSSA MIC [2]: > 32 µg/mL
> 32	> 32	N#Cc1ccc(C(=O)Nc2c(-c3ccccn3)nc3ccccn23)cc1 [compound 1016]	–
> 32	> 32	Cc1ccc(C(=O)Nc2c(-c3ccccn3)nc3ccccn23)cc1 [compound 1017]	–
8 (≈ 23.9 µM)	8 (≈ 23.9 µM)	COc1ccc(-c2nc3ccccn3c2Nc2ccc(F)cc2)nc1 [compound 1022]	–
–	–	CC(C)CN(c1ccc(F)cc1)c1c(-c2ccccn2)nc2cc(F)ccn12 [compound 1023]	MRSA MIC [1]: 8 µg/mL; MSSA MIC [2]: 4 µg/mL
–	–	CC(C)CN(c1ccc(F)cc1)c1c(-c2ccccn2)nc2ccc(F)cn12 [compound 1024]	MRSA MIC [1]: 8 µg/mL; MSSA MIC [2]: 8 µg/mL
–	–	COc1ccc(-c2nc3ccccn3c2N(CC(C)C)c2ccc(F)cc2)nc1 [compound 1034]	MRSA MIC [1]: 8 µg/mL

From PMC10714399, “Open Source Antibiotics: Simple Diarylimidazoles Are Potent against Methicillin-Resistant Staphylococcus aureus” (ACS Infectious Diseases, 2023)
